{
  "source": "patent US12629406B2",
  "about": "“Alterations in endothelin receptors following hemorrhage and resuscitation by centhaquin” (MIDWESTERN UNIVERSITY, priority 2018, dated 2026)",
  "key": {"[1]": {"assay": "Rat hemorrhagic shock, hypertonic saline resuscitation: hematocrit, arterial blood gases, lactate, base deficit", "format": "in vivo", "method": "Animals. Male Sprague-Dawley rats (340 to 380 g) (Envigo, Indianapolis, IN) were housed for at least 4 days in a room with controlled temperature (23±1° C.), humidity (50±10%) and light (6:00 A.M. to 6:00 P.M.) before being used. Food and water were made available continuously. Animal care and use for experimental procedures were approved by the Institutional Animal Care and Use Committee of the Midwestern University. All anesthetic and surgical procedures were in compliance with the guidelines established by the Animal Care Committee.\nDetermination of arterial blood gases and base deficit. Baseline arterial blood pH, Po2, Pco2, Na^+, K^+ and lactate were monitored prior to induction of shock, 30 minutes after induction of shock, and 30 and 60 minutes following vehicle or centhaquin resuscitation. Blood samples (0.15 ml) were drawn from the arterial cannula using blood gas sampling syringes (Innovative Medical Technologies, Inc. Leawood, K S) and analyzed using a pHOx Ultra analyzer (Nova Biomedical Corporation, Waltham, MA). The base deficit was calculated using the formula (Davis et al. 1998; Paladino et al. 2008): SBD=0.9287×[HCO3^−−24.4+14.83×(pH-7.4)]\n(§1) Induction of Hemorrhagic Shock. Hemorrhage was induced by withdrawing blood from the femoral artery at a rate of approximately 0.5 to 1 mL/min until a MAP of 35 mmHg was reached. This MAP was maintained for 30 min by further withdrawal of blood, if necessary. The hemorrhagic shock model used in the present study is a well-established rodent model of manageable pressure hemorrhage (Buehler et al. 2000; Gulati et al. 1997a; Gulati and Sen 1998). The volume of blood loss was about approximately 8.0 ml in each rat and was similar in various groups, amounting to approximately 40% of the total blood. Measured hematocrit levels were similar in various groups. The duration of blood withdrawal was approximately 15 minutes.\n(§2) Experimental design. To determine the resuscitative effect of centhaquin on cardiovascular system and plasma cytokines in hemorrhagic shock, rats were randomly divided into five groups, Group 1: Sham control (Non-hemorrhaged) (n=5), Group 2: Hemorrhage with no resuscitation (n=5); Group 3: Hemorrhage followed by resuscitation with 3% hypertonic saline (vehicle) (n=5); Group 4: Hemorrhage followed by resuscitation with vehicle plus centhaquin (0.017 mg/kg) (n=5); and Group 5: Hemorrhage followed by resuscitation with vehicle plus centhaquin (0.05 mg/kg) (n=5). Resuscitation was started 30 min after induction of hemorrhagic shock as an intravenous infusion (1 mL/min) through femoral vein using an infusion pump (Harvard Apparatus Infusion/Withdrawal Pump, Millis, MA). The blood samples, for biochemical estimations, were collected at 30 minutes of resuscitation and cardiovascular parameters were monitored till 60 minutes after which the animal was sacrificed. The volume of resuscitative solution was kept equal to the volume of blood loss."}, "ETB receptors": {"test_system": "ETB receptors", "assay": "ETB receptor expression in tissues of hemorrhaged rats (western blot)", "format": "in vivo, rat", "details": "for change in ETB receptor expression, abdominal aorta / change in ETB receptor expression, kidney medulla: compared to untreated hemorrhaged rats", "method": "as §1, §2\nEstimation of ETA and ETB receptor expression. Expression of ETA and ETB receptors was determined using the western blotting technique (Briyal et al. 2015; Leonard and Gulati 2013) with some modifications. After completion of cardiovascular experiments animals were sacrificed and the organs (brain, heart, liver, lung, kidney and abdominal aorta) were immediately dissected out, flash frozen on dry ice, and stored at −80° C. for further analysis. The tissue was homogenized with 10×(w/v) RIPA lysis buffer (20 mM Tris-HCl pH 7.5, 120 mM NaCl, 1.0% TritonX-100, 1.0% sodium deoxycholate, 0.1% sodium dodecyl sulfate (SDS), 10% glycerol, 1 mM disodium ethylene diamine tetraacetic acid (EDTA), 1 mM ethylene glycol-bis(β-aminoethyl ether)-N,N,N′,N′-tetraacetic acid tetrasodium salt (EGTA), phosphatase inhibitors and Complete Mini Protease inhibitor cocktail tablet (Roche Diagnostics, Indianapolis, IN). Proteins were isolated in solubilized form and concentrations were measured by Folin-Ciocalteu's phenol reagent (Lowry et al. 1951). Solubilized protein (60 μg) was denatured in Laemmli sample buffer (Bio-Rad Laboratories, Hercules, CA), resolved on 10% sodium dodecyl sulfate-polyacrylamide gel electrophoresis (SDS-PAGE) and then transferred onto the nitrocellulose membrane followed by blocking the membrane with SuperBlock® Blocking Buffer in tris-buffered saline (TBS) (ThermoFisher Scientific, Hanover Park, IL). The membranes were washed three times with 1×TBS-Tween (TBST) and incubated with rabbit polyclonal anti-ETA receptor (ab85163, Abcam, Cambridge, MA, 1:1000) or anti-ETB receptor (ab117529, Abcam, Cambridge, MA, 1:1000) or mouse monoclonal anti-β-actin (a1978, Sigma-Aldrich, St. Louis, MO) antibodies, followed by horseradish peroxidase (HRP)-conjugated secondary antibodies goat anti-rabbit (sc2004, Santa Cruz Biotechnology, Dallas, TX, 1:2000) or goat anti-mouse (ab98693, Abcam, Cambridge, MA, 1:10,000) and visualized by SuperSignal® West Pico Chemiluminescent Substrate (ThermoFisher Scientific, Hanover Park, IL) using the ChemiDoc™ MP Imaging System (Bio-Rad Laboratories, Hercules, CA) and then analyzed using ImageJ (NIH) software."}, "[2]": {"details": "cited from earlier work"}, "[3]": {"details": "60 min after resuscitation, centhaquin 0.017 mg/kg in 3% saline"}, "[4]": {"details": "60 min after resuscitation, centhaquin 0.05 mg/kg in 3% saline"}, "[5]": {"details": "Baseline, before hemorrhage, centhaquin 0.017 mg/kg group"}, "[6]": {"details": "Baseline, before hemorrhage, centhaquin 0.05 mg/kg group"}, "[7]": {"details": "H. Shock, before resuscitation, centhaquin 0.017 mg/kg group"}, "[8]": {"details": "H. Shock, before resuscitation, centhaquin 0.05 mg/kg group"}, "[9]": {"details": "centhaquin 0.017 and 0.05 mg/kg"}},
  "note": "Where “and” joins values, the source holds several entries; their conditions need not be identical. Identical values can stand only once.",
  "data": [
    {"smiles": "Cc1cccc(N2CCN(CCc3ccc4ccccc4n3)CC2)c1", "note": "[centhaquin, 2-[2-(4-(3-methyphenyl)-1-piperazinyl)]ethyl-quinoline]", "values": [
      {"measurement": "Base-deficit", "setting": "[1]; [3]", "value": "−12.0±0.2 mEq/L and −12.0 ± 0.2^#Δ mEq/L"},
      {"measurement": "Hematocrit", "setting": "[1]; [3]", "value": "21.5 ± 1.8", "unit": "%"},
      {"measurement": "Lactate", "setting": "[1]; [3]", "value": "1.9 ± 0.1^#Δ mmol/L"},
      {"measurement": "PCO2", "setting": "[1]; [3]", "value": "26.0 ± 1.6", "unit": "mmHg"},
      {"measurement": "arterial blood pH", "setting": "[1]; [3]", "value": "7.24 ± 0.02^Δ"},
      {"measurement": "pO2", "setting": "[1]; [3]", "value": "131.3 ± 5.4", "unit": "mmHg"},
      {"measurement": "Base-deficit", "setting": "[1]; [4]", "value": "−11.6±0.5 mEq/L and −11.6 ± 0.5^#Δ mEq/L"},
      {"measurement": "Hematocrit", "setting": "[1]; [4]", "value": "21.3 ± 1.3", "unit": "%"},
      {"measurement": "Lactate", "setting": "[1]; [4]", "value": "1.7 ± 0.2^#Δ mmol/L"},
      {"measurement": "PCO2", "setting": "[1]; [4]", "value": "27.3 ± 1.9", "unit": "mmHg"},
      {"measurement": "arterial blood pH", "setting": "[1]; [4]", "value": "7.28 ± 0.01^Δ"},
      {"measurement": "pO2", "setting": "[1]; [4]", "value": "121.3 ± 4.6", "unit": "mmHg"},
      {"measurement": "Base-deficit", "setting": "[1]; [5]", "value": "−2.9 ± 0.3", "unit": "mEq/L"},
      {"measurement": "Hematocrit", "setting": "[1]; [5]", "value": "36.8 ± 1.3", "unit": "%"},
      {"measurement": "Lactate", "setting": "[1]; [5]", "value": "1.5 ± 0.2", "unit": "mmol/L"},
      {"measurement": "PCO2", "setting": "[1]; [5]", "value": "33.8 ± 1.2", "unit": "mmHg"},
      {"measurement": "arterial blood pH", "setting": "[1]; [5]", "value": "7.38 ± 0.01"},
      {"measurement": "pO2", "setting": "[1]; [5]", "value": "125.5 ± 1.9", "unit": "mmHg"},
      {"measurement": "Base-deficit", "setting": "[1]; [6]", "value": "−2.8 ± 0.3", "unit": "mEq/L"},
      {"measurement": "Hematocrit", "setting": "[1]; [6]", "value": "39.3 ± 1.6", "unit": "%"},
      {"measurement": "Lactate", "setting": "[1]; [6]", "value": "1.8 ± 0.1", "unit": "mmol/L"},
      {"measurement": "PCO2", "setting": "[1]; [6]", "value": "34.5 ± 2.1", "unit": "mmHg"},
      {"measurement": "arterial blood pH", "setting": "[1]; [6]", "value": "7.38 ± 0.01"},
      {"measurement": "pO2", "setting": "[1]; [6]", "value": "120.2 ± 1.2", "unit": "mmHg"},
      {"measurement": "Base-deficit", "setting": "[1]; [7]", "value": "−15.3 ± 0.4", "unit": "mEq/L"},
      {"measurement": "Hematocrit", "setting": "[1]; [7]", "value": "24.8 ± 1.5", "unit": "%"},
      {"measurement": "Lactate", "setting": "[1]; [7]", "value": "7.6 ± 0.3", "unit": "mmol/L"},
      {"measurement": "PCO2", "setting": "[1]; [7]", "value": "15.9 ± 0.9", "unit": "mmHg"},
      {"measurement": "arterial blood pH", "setting": "[1]; [7]", "value": "7.23 ± 0.02"},
      {"measurement": "pO2", "setting": "[1]; [7]", "value": "145.6 ± 1.9", "unit": "mmHg"},
      {"measurement": "Base-deficit", "setting": "[1]; [8]", "value": "−15.4 ± 0.9", "unit": "mEq/L"},
      {"measurement": "Hematocrit", "setting": "[1]; [8]", "value": "22.2 ± 0.7", "unit": "%"},
      {"measurement": "Lactate", "setting": "[1]; [8]", "value": "7.4 ± 0.4", "unit": "mmol/L"},
      {"measurement": "PCO2", "setting": "[1]; [8]", "value": "16.3 ± 1.5", "unit": "mmHg"},
      {"measurement": "arterial blood pH", "setting": "[1]; [8]", "value": "7.25 ± 0.03"},
      {"measurement": "pO2", "setting": "[1]; [8]", "value": "142.8 ± 1.8", "unit": "mmHg"},
      {"measurement": "change in hematocrit after treatment", "setting": "[1]; [9]", "value": "no change"},
      {"measurement": "effect on blood pH of hemorrhaged rats", "setting": "[1]; [9]", "value": "significantly prevented the reduction of pH"},
      {"measurement": "blood lactate levels compared to the hypertonic saline group", "setting": "[1]; centhaquin 0.017 and 0.05 mg/kg, p<0.001", "value": "significant decrease"},
      {"measurement": "effect on hemorrhage-induced decrease in pCO2 and increase in pO2", "setting": "[1]; resuscitation with centhaquin", "value": "not affected"},
      {"measurement": "change in ETB receptor expression, abdominal aorta", "setting": "ETB receptors; centhaquin 0.017 mg/kg", "value": 79.7, "unit": "%"},
      {"measurement": "change in ETB receptor expression, kidney medulla", "setting": "ETB receptors; centhaquin 0.017 mg/kg", "value": 76.6, "unit": "%"},
      {"measurement": "change in ETB receptor expression, abdominal aorta", "setting": "ETB receptors; centhaquin 0.05 mg/kg", "value": 57.4, "unit": "%"},
      {"measurement": "change in ETB receptor expression, kidney medulla", "setting": "ETB receptors; centhaquin 0.05 mg/kg", "value": 69.4, "unit": "%"},
      {"measurement": "change in ETB expression, abdominal aorta (summary)", "setting": "ETB receptors; dose not given", "value": 79, "unit": "%"},
      {"measurement": "ETB receptor expression in brain, heart, liver, lungs and kidney cortex", "setting": "ETB receptors; hemorrhage and resuscitation", "value": "no change"},
      {"measurement": "shock-induced decrease (−34%) in ETB expression, renal medulla", "setting": "ETB receptors; summary, not attenuated by saline", "value": "completely attenuated"},
      {"measurement": "survival compared to Lactated Ringer's", "setting": "[2]; 0.015 mg/kg in the fluid resuscitation phase", "value": "significantly better survival"},
      {"measurement": "cardiac output (CO)", "setting": "[2]; 0.015 mg/kg", "value": "augments CO"},
      {"measurement": "systemic vascular resistance (SVR)", "setting": "[2]; 0.015 mg/kg", "value": "reduces systemic vascular resistance"},
      {"measurement": "volume of fluids for resuscitation", "setting": "[2]; 0.015 mg/kg", "value": "requires smaller volume of fluids"}
    ]}
  ]
}
